According to PubChem BioAssay (NCI):
Several values for one entry are separate records, joined by “and”; a condition that tells them apart may be missing. Equal entries are not always repeated.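 Five compound concentrations were applied to cells in 96-well plates for 48 hours; endpoints were derived by simple linear interpolation of the resulting dose-response curve. At the GI50, growth is halved. TGI denotes the concentration required for complete inhibition of growth.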

Legend:
Experiment in all cases: growth of human tumour cells (NCI), 48 h
SK-MEL-28 melanoma = system: SK-MEL-28 melanoma
MOLT-4 leukemia = system: MOLT-4 leukemia
LOX IMVI melanoma = system: LOX IMVI melanoma
A549 NSCLC = system: A549 NSCLC
HCT-116 colon = system: HCT-116 colon
MALME-3M melanoma = system: MALME-3M melanoma
A498 renal = system: A498 renal
DU-145 prostate = system: DU-145 prostate
HT29 colon = system: HT29 colon
BT-549 breast = system: BT-549 breast

SMILES | TGI (SK-MEL-28 melanoma) | TGI (MOLT-4 leukemia) | TGI (LOX IMVI melanoma) | TGI (A549 NSCLC) | TGI (HCT-116 colon) | TGI (MALME-3M melanoma) | TGI (A498 renal) | TGI (DU-145 prostate) | TGI (HT29 colon) | GI50 (MOLT-4 leukemia) | GI50 (MALME-3M melanoma) | TGI (BT-549 breast)
N#CC(c1nc2ccccc2nc1Cl)S(=O)(=O)c1ccccc1 (stereo unspecified) | > 100 µM | > 100 µM | > 100 µM | > 100 µM | > 100 µM | > 100 µM | > 100 µM |  |  |  |  | 
COc1ccc2c(c1)c(CC(=O)O)c(C)n2C(=O)c1ccc(Cl)cc1 | > 100 µM | > 100 µM | > 100 µM | > 100 µM | > 100 µM | > 100 µM |  | > 100 µM | > 100 µM |  |  | 
COc1cc(/C=C2\Sc3scc(-c4cccc([N+](=O)[O-])c4)[n+]3C2=O)cc(OC)c1OC | 34.8 µM | 11.8 µM | 24.1 µM | 54.3 µM | 26.4 µM | 28.4 µM | > 100 µM | 30.2 µM | 41.2 µM |  |  | 
CC1(C)C2C=CC1(C)C1(CC2)OCCO1 (stereo unspecified) | > 100 µM | > 100 µM | > 100 µM |  | > 100 µM | > 100 µM | > 100 µM | > 100 µM | > 100 µM |  |  | 
O=C1c2cc3c(cc2CC12Cc1ccc4c(c1C2=O)CCCC4)CCCC3 (stereo unspecified) | > 100 µM | > 100 µM | > 100 µM | > 100 µM | > 100 µM | > 100 µM | 59.7 µM | > 100 µM | > 100 µM |  |  | 
COc1ccc(C2=NN(c3ccccc3)C[N+](c3ccc(OC)cc3)=N2)cc1 | > 100 µM | 90.7 µM | 61.9 µM | > 100 µM | > 100 µM | 47.1 µM | > 100 µM |  | > 100 µM |  |  | 
COC(=O)C(CSSC[C@H](N/C(C)=C/C(C)=O)C(=O)OC)N/C(C)=C/C(C)=O (stereo partly specified) | > 100 µM | > 100 µM | 39.7 µM | > 100 µM | > 100 µM | 68.6 µM | > 100 µM | 87.5 µM | > 100 µM |  |  | 
COC(=O)c1cc2ccc(OC(C)=O)c(OC(C)=O)c2cn1 | 34.3 µM | 6.54 µM and 4.28 µM | 3.63 µM and 2.6 µM | 43 µM | 32.7 µM | 24 µM | 48.7 µM | 76.3 µM | 52.6 µM | 2.22 µM | 11.5 µM | 
CCOc1cc(C2CC(c3ccc(NS(=O)(=O)c4cc([N+](=O)[O-])ccc4C)cc3)=NN2c2ccc([N+](=O)[O-])cc2[N+](=O)[O-])ccc1O (stereo unspecified) | 89.4 µM | > 100 µM | 44.1 µM | 28.1 µM | 26.1 µM | 23.2 µM |  | 45.1 µM | > 100 µM |  |  | 38.4 µM
COc1ccc(/C=C2\S/C(=N/Nc3nc(-c4ccccc4)cs3)NC2=O)cc1OC | 69.9 µM | 20.6 µM | 65.6 µM | > 100 µM | 41.6 µM |  |  | > 100 µM |  |  |  | 81.3 µM
CCN(CC)c1ccc2cc(C(=O)Nc3cccc4ccccc34)c(=N)oc2c1 | > 100 µM |  | > 100 µM | > 100 µM | > 100 µM | > 100 µM |  | > 100 µM | > 100 µM |  |  | 62.1 µM
COc1ccc(-c2cc(-c3cc4cc(Br)ccc4nc3Cl)c(C#N)c(N)n2)cc1 | > 12.5 µM | > 12.5 µM | > 12.5 µM | > 12.5 µM | > 12.5 µM | > 12.5 µM |  | > 12.5 µM | > 12.5 µM |  |  | > 12.5 µM
CC1CC/C(=C\c2ccc(Cl)cc2)C2OC(N)=C(C#N)C(c3ccc(Cl)cc3)=C12 (stereo unspecified) | 37.5 µM | 24.2 µM | 26.6 µM |  | 27.4 µM | 28.7 µM |  | 34.5 µM | 20.7 µM |  |  | 30.7 µM
O=c1oc2ccccc2cc1-c1cn2cc(Cl)ccc2n1 | 17.9 µM | > 36.1 µM | 18.7 µM | 16.8 µM | 14.7 µM | 4.77 µM |  | > 36.8 µM | > 59.8 µM |  |  | 21.9 µM
COc1ccc(-c2c(C#N)c(S)n(NS(=O)(=O)c3ccc(C)cc3)c(=O)c2C#N)cc1 | 63.2 µM | 34.3 µM | 29.8 µM | > 100 µM | 28 µM | > 100 µM | > 100 µM |  | > 100 µM |  |  | 32.5 µM
Nc1ccccc1CC(O)C(=O)O (stereo unspecified) | > 100 µM | > 100 µM | > 100 µM | > 100 µM | > 100 µM | > 100 µM | > 100 µM | > 100 µM | > 100 µM |  |  | 
OC(CCNCc1ccccc1)c1ccc2ccccc2c1 (stereo unspecified) | 34 µM | 84.8 µM | 27.2 µM | 36.3 µM | 47.1 µM | 38.7 µM | 40 µM | 39.6 µM | 61.7 µM |  |  | 
